Reference: PMC9746714, “Aspartate α-decarboxylase a new therapeutic target in the fight against Helicobacter pylori infection” (Frontiers in Microbiology, 2022)
Values after ≈ are worked out from the molar mass of the structure shown.

Tests used:
[1] = target: T1, Aspartate α-decarboxylase (ADC) (Helicobacter pylori, UniProt P56065); experiment: HPLC measurement of β-alanine produced from L-aspartate by purified 6xHis-tagged ADC; type: biochemical
T1 construct: gene panD; recombinant 6xHis-tagged ADC, 117 amino acids for ADC plus six for the His-tag (from H. pylori ATCC 43504)

[2] = system: T2, Acinetobacter baumannii ATCC 19606; experiment: microbe, parasite or virus in culture; parameters: species or system bacterial species; broth microdilution MIC in Mueller-Hinton broth, visible growth; conditions: Acinetobacter baumannii, ATCC19606, 20 h
T2 construct: ATCC 19606
Protocol: (§1) Assessment of the spectrum of activity of malonic acid The spectrum of activity of malonic acid was assessed by determining malonic acid MIC against eight other pathogenic bacterial species (A. baumannii ATCC 19606, B. cenocepacia ATCC BAA-245, E. coli ATCC 25922, E. faecium ATCC 27270, E. faecalis ATCC 19433, K. pneumoniae ATCC 10031, P. aeruginosa ATCC 27856, and S. aureus ATCC 25923) using broth microdilution method, according to the CLSI guidelines ([CLSI, 2018]). Malonic acid solution was serially diluted in Muller-Hinton broth (100 μL) to get concentrations ranging from 6 to 0.19 mg/mL. The inoculum was prepared to be equivalent to 0.5 McFarland standard (containing approximately 1–2 × 10^8 CFU/mL with most species) and was further diluted 1:10 (to get a concentration of 10^7 CFU/mL). 10 μL of the diluted inoculum was transferred to each well to contain 5 × 10^5 CFU/mL. Plates were incubated at 37°C for 20 h. […] The experiment was carried out in triplicates. Malonic acid MIC was determined against other pathogenic species (A. baumannii ATCC 19606, B. cenocepacia ATCC BAA-245, E. coli ATCC 25922, E. faecium ATCC 27270, E. faecalis ATCC 19433, K. pneumoniae ATCC 10031, P. aeruginosa ATCC 27856, and S. aureus ATCC 25923) by the broth microdilution method.

[3] = system: T3, Burkholderia cepacia ATCC BAA-245; experiment: microbe, parasite or virus in culture; parameters: species or system bacterial species; broth microdilution MIC in Mueller-Hinton broth, visible growth; conditions: Burkholderia cepacia, ATCCBAA245, 20 h
T3 construct: ATCC BAA-245
Protocol: as §1

[4] = system: T4, Enterococcus faecalis ATCC 19433; experiment: microbe, parasite or virus in culture; parameters: species or system bacterial species; broth microdilution MIC in Mueller-Hinton broth, visible growth; conditions: Enterococcus faecalis, ATCC19433, 20 h
T4 construct: ATCC 19433
Protocol: as §1

[5] = system: T5, Enterococcus faecium ATCC 27270; experiment: microbe, parasite or virus in culture; parameters: species or system bacterial species; broth microdilution MIC in Mueller-Hinton broth, visible growth; conditions: Enterococcus faecium, ATCC27270, 20 h
T5 construct: ATCC 27270
Protocol: as §1

[6] = system: T6, Escherichia coli ATCC 25922; experiment: microbe, parasite or virus in culture; parameters: species or system bacterial species; broth microdilution MIC in Mueller-Hinton broth, visible growth; conditions: Escherichia coli, ATCC25922, 20 h
T6 construct: ATCC 25922
Protocol: as §1

[7] = system: T7, Klebsiella pneumoniae ATCC 10031; experiment: microbe, parasite or virus in culture; parameters: species or system bacterial species; broth microdilution MIC in Mueller-Hinton broth, visible growth; conditions: Klebsiella pneumoniae, ATCC10031, 20 h
T7 construct: ATCC 10031
Protocol: as §1

[8] = system: T8, Pseudomonas aeruginosa ATCC 27856; experiment: microbe, parasite or virus in culture; parameters: species or system bacterial species; broth microdilution MIC in Mueller-Hinton broth, visible growth; conditions: Pseudomonas aeruginosa, ATCC27856, 20 h
T8 construct: ATCC 27856
Protocol: as §1

[9] = system: T9, Staphylococcus aureus ATCC 25923; experiment: microbe, parasite or virus in culture; parameters: species or system bacterial species; broth microdilution MIC in Mueller-Hinton broth, visible growth; conditions: Staphylococcus aureus, ATCC25923, 20 h
T9 construct: ATCC 25923
Protocol: as §1

[10] = system: T10, Helicobacter pylori ATCC 43504; experiment: microbe, parasite or virus in culture; parameters: MIC against H. pylori by agar dilution and broth microdilution, microaerophilic, visible growth; conditions: ATCC43504, 72 h
T10 construct: ATCC 43504
Protocol: (§2) The MIC of malonic acid was determined by agar dilution and broth microdilution methods, against H. pylori ATCC 43504 and H. pylori HPM001 strains. Malonic acid (Loba, India) was dissolved in distilled water to the desired concentration, sterilized by a […] syringe filter, and used within 72 h of preparation. Inocula for MIC testing were prepared by suspending colonies in saline to reach an optical density equivalent to 2.0 McFarland turbidity standard (approximately 1×10^7 to 1×10^8 CFU/mL) ([CLSI, 2015]). The culture media used in MIC determination were freshly prepared, according to the manufacturer’s instruction, and supplemented with 1% yeast extract (LabM, United Kingdom) to enhance bacterial growth ([Walsh and Moran, 1997]). MIC determination by broth microdilution method was carried out in 96-well round-bottom micro-titre plates. […] The MIC of malonic acid was determined by agar dilution and broth microdilution methods against H. pylori ATCC 43504 and H. pylori HPM001. […] No significant difference was recorded between the MIC of malonic acid against H. pylori ATCC 43504 and H. pylori HPM001 using either the agar (p = 0.8529) or the broth microdilution methods (p = 0.8784). There was also no significant difference between the mean MIC of malonic acid recorded against the tested strains by both methods (p = 0.54).

[11] = system: T11, Helicobacter pylori HPM001; experiment: microbe, parasite or virus in culture; parameters: MIC against H. pylori by agar dilution and broth microdilution, microaerophilic, visible growth; conditions: HPM001, 72 h
T11 construct: HPM001
Protocol: as §2

T1 sequence (P56065 1-24): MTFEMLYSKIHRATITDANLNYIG
T1 sequence (P56065 25-117): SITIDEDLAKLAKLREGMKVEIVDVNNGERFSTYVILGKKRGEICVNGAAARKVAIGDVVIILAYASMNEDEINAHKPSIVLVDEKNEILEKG

Row | Structure (SMILES) | HPLC measurement of β-alanine produced from L-aspartate by purified 6xHis-tagged [1] | MIC [2] | MIC [3] | MIC [4] | MIC [5] | MIC [6] | MIC [7] | MIC [8] | MIC [9] | MIC [10] | MIC [11]
1 | NC(CC(=O)O)C(=O)O [L-aspartate, 2-amino-butanedioic acid] | assaying β-alanine, the product of the enzymatic action of recombinant H. pylori 6x-His-tagged ADC on aspartate | – | – | – | – | – | – | – | – | – | –
2 | O=C(O)CC(=O)O [MA, propanedioic acid] | – | 750 µg/mL (≈ 7.21 mM) | 1000 ± 350 µg/mL (≈ 9.61 mM) | 625 ± 180 µg/mL (≈ 6.01 mM) | 1000 ± 350 µg/mL (≈ 9.61 mM) | 750 µg/mL (≈ 7.21 mM) | 1250 ± 350 µg/mL (≈ 12 mM) | 625 ± 180 µg/mL (≈ 6.01 mM) | 750 µg/mL (≈ 7.21 mM) | 625 ± 180 µg/mL (≈ 6.01 mM) | 750 µg/mL (≈ 7.21 mM)
